TGI and GI50 data for 18 molecules are collected here from PubChem BioAssay (NCI).

Test systems include NCI-H23 lung; HOP-92 NSCLC; RXF 393 renal; A498 renal; SK-MEL-28 melanoma; UACC-62 melanoma; A549 NSCLC; SK-MEL-5 melanoma; RPMI-8226 leukemia; SN12C renal.
Holding throughout (assay): NCI tumour cell line growth inhibition, 48 h

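Test compounds were applied to cells in 96-well plates for 48 hours at 5 doses. GI50 marks 50% less growth. TGI denotes the concentration required for complete inhibition of growth.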 Where only a bound is given, the exact number is not on record here.

Turning to `O=C(O)C1CC(c2ccccc2)=NN1c1ccccc1` (stereo unspecified), the TGI in the assay on NCI-H23 lung, with HOP-92 NSCLC, with RXF 393 renal, in the assay on A498 renal, in the assay with SK-MEL-28 melanoma and with UACC-62 melanoma was over 100 µM throughout. Moreover, the TGI in the assay on A549 NSCLC, with SK-MEL-5 melanoma, in the assay on RPMI-8226 leukemia and in the assay with SN12C renal was over 100 µM each time.
In the case of `O=S(=O)(O)c1c(N=Nc2c(O)ccc3ccccc23)ccc2ccccc12`, the TGI in the assay with NCI-H23 lung, in the assay with HOP-92 NSCLC, with RXF 393 renal, with A498 renal, in the assay on SK-MEL-28 melanoma and with UACC-62 melanoma was over 100 µM in each case. Besides, the TGI in the assay with A549 NSCLC, with SK-MEL-5 melanoma, in the assay on RPMI-8226 leukemia and in the assay on SN12C renal was over 100 µM throughout.
`O=C(/C=C/c1ccc(O)cc1)NCCc1ccc(O)cc1`: the TGI with NCI-H23 lung, in the assay with HOP-92 NSCLC, in the assay with RXF 393 renal, in the assay with A498 renal, with SK-MEL-28 melanoma and in the assay with UACC-62 melanoma was over 12.5 µM each time. For the same molecule, the TGI with A549 NSCLC, in the assay with SK-MEL-5 melanoma, in the assay on RPMI-8226 leukemia and in the assay with SN12C renal was over 12.5 µM in each case.
For the molecule `CC(O)C(O)C(N)CC=O` (stereo unspecified), the TGI was over 500 µM with NCI-H23 lung; over 500 µM in the assay on HOP-92 NSCLC; over 500 µM in the assay with RXF 393 renal; over 50 µM in the assay on A498 renal; over 500 µM in the assay with SK-MEL-28 melanoma; over 500 µM in the assay with UACC-62 melanoma. The TGI with A549 NSCLC, in the assay on SK-MEL-5 melanoma, with RPMI-8226 leukemia and in the assay with SN12C renal was over 500 µM throughout.
Consider `N#C/C=C1\C=CC(O)C(O)C1OC1OC(CO)C(O)C(O)C1O` (stereo unspecified), for which the TGI in the assay on NCI-H23 lung, with HOP-92 NSCLC, in the assay on RXF 393 renal, in the assay on A498 renal, with SK-MEL-28 melanoma and in the assay on UACC-62 melanoma was over 100 µM in each case. Besides, the TGI with A549 NSCLC, in the assay with SK-MEL-5 melanoma, in the assay on RPMI-8226 leukemia and in the assay on SN12C renal was over 100 µM throughout.
On to `CN(C)Cc1ccc(C(=O)Nc2ccc3ncnc(Nc4ccc(Oc5cccc(F)c5)c(Cl)c4)c3c2)cc1`, for which the GI50 is 1.58 µM in the assay with NCI-H23 lung; 1.09 µM in the assay on HOP-92 NSCLC; 1.5 µM with RXF 393 renal; 1.35 µM with A498 renal; 1.68 µM in the assay with SK-MEL-28 melanoma; 1.77 µM in the assay on UACC-62 melanoma. For the same molecule, the GI50 is 1.59 µM in the assay with SK-MEL-5 melanoma and 1.44 µM with SN12C renal. In addition, the TGI is 3.09 µM in the assay on NCI-H23 lung; 2.44 µM in the assay with HOP-92 NSCLC; 2.99 µM in the assay with RXF 393 renal; 2.71 µM with A498 renal; 3.09 µM in the assay with SK-MEL-28 melanoma; 3.23 µM in the assay with UACC-62 melanoma. Moreover, the TGI came to 2.97 µM in the assay with SK-MEL-5 melanoma and 2.81 µM in the assay on SN12C renal.
In the case of `Fc1ccc(-c2ccc(-c3nnc(-c4cc(F)c(Cl)cc4Cl)o3)o2)cc1Cl`, the GI50 with NCI-H23 lung was 47.9 µM; with HOP-92 NSCLC it was 38.5 µM; in the assay on RXF 393 renal, 48 µM; in the assay with SK-MEL-28 melanoma, 24.9 µM; in the assay on UACC-62 melanoma, 17.6 µM; in the assay on A549 NSCLC, 37.3 µM. In addition, the values for the GI50 with SK-MEL-5 melanoma, with RPMI-8226 leukemia and with SN12C renal were 17 µM, 26.4 µM and 33.3 µM, respectively. Further, the TGI in the assay on NCI-H23 lung is over 100 µM; with HOP-92 NSCLC it was over 100 µM; with RXF 393 renal, over 100 µM; in the assay on SK-MEL-28 melanoma it was 68.2 µM; in the assay with UACC-62 melanoma, 51.2 µM; with A549 NSCLC it was over 100 µM. The figures for the TGI with SK-MEL-5 melanoma, in the assay on RPMI-8226 leukemia and in the assay with SN12C renal were 31.9 µM, 72.9 µM and over 100 µM, respectively.
Turning to `Nc1nc(SCc2ccccc2)c2ncn(Cc3ccccc3)c2n1`, the TGI in the assay with NCI-H23 lung is over 100 µM; with HOP-92 NSCLC it was over 100 µM; with RXF 393 renal it was over 100 µM; in the assay with A498 renal it was over 65.9 µM; in the assay on SK-MEL-28 melanoma, over 100 µM; with UACC-62 melanoma, over 100 µM. Besides, the TGI in the assay on A549 NSCLC, in the assay with SK-MEL-5 melanoma, with RPMI-8226 leukemia and with SN12C renal was over 100 µM in each case.
As to `COc1ccc(SC(C)(SC)c2ccccn2)c(OC)n1` (stereo unspecified), the TGI in the assay with NCI-H23 lung, in the assay with HOP-92 NSCLC, in the assay on RXF 393 renal, with A498 renal, with SK-MEL-28 melanoma and with UACC-62 melanoma was over 100 µM in each case. Further, the TGI in the assay on A549 NSCLC was over 100 µM; in the assay on SK-MEL-5 melanoma, over 100 µM; in the assay with RPMI-8226 leukemia, 73.4 µM; in the assay with SN12C renal, over 100 µM.
For `S=C(Nc1ccc(Cl)cc1)Nc1ccc(Cl)cc1` (tested in a mixture with another compound), the GI50 in the assay with NCI-H23 lung is 1.87 µM; in the assay on HOP-92 NSCLC it was 1.55 µM; in the assay on RXF 393 renal it was 2.13 µM; in the assay on A498 renal it was 1.62 µM; with SK-MEL-28 melanoma, 3.46 µM; with UACC-62 melanoma it was 1.75 µM. The values for the GI50 with A549 NSCLC, in the assay on SK-MEL-5 melanoma and in the assay on SN12C renal were 2.38 µM, 1.55 µM and 2.49 µM, respectively. For the same molecule, the TGI with NCI-H23 lung was 6.05 µM; with HOP-92 NSCLC, 4.56 µM; with RXF 393 renal, 5.29 µM; with A498 renal, 6.56 µM; in the assay with SK-MEL-28 melanoma it was 25.5 µM; in the assay on UACC-62 melanoma, 4.28 µM. Moreover, the TGI in the assay on A549 NSCLC is over 100 µM; in the assay on SK-MEL-5 melanoma, 2.94 µM; in the assay on SN12C renal, 7.32 µM.
Consider `S=C1N(c2ccc(Cl)cc2)C2=C(N=Nc3ccccc3)C(=Nc3ccccc3S2)N1c1ccccn1`, for which the TGI turned out to be 37.4 µM in the assay on NCI-H23 lung; 49.6 µM with HOP-92 NSCLC; 17.2 µM in the assay on A498 renal; 29.4 µM with SK-MEL-28 melanoma; 29.1 µM in the assay with A549 NSCLC; 23.4 µM in the assay with SK-MEL-5 melanoma. In addition, the TGI is 43.6 µM in the assay with RPMI-8226 leukemia and 25 µM with SN12C renal.
On to `O=S(O)c1cc(Cl)cc(Cl)c1O`, for which the TGI in the assay with NCI-H23 lung, in the assay with RXF 393 renal, in the assay on A498 renal, with SK-MEL-28 melanoma, in the assay with UACC-62 melanoma and with SN12C renal was over 100 µM each time.
Take `C[N+]1(C)CCC(C#N)(c2ccccc2)CC1`: the TGI in the assay on NCI-H23 lung, in the assay with HOP-92 NSCLC, in the assay with RXF 393 renal, in the assay with A498 renal, with SK-MEL-28 melanoma and with A549 NSCLC was over 100 µM throughout. Further, the TGI in the assay on SK-MEL-5 melanoma and in the assay on RPMI-8226 leukemia was over 100 µM throughout.
Turning to `[C-]#[O+].[C-]#[O+].[Ir].[O-]c1cccc2cccnc12`, the GI50 in the assay with NCI-H23 lung, with RXF 393 renal, in the assay on SK-MEL-28 melanoma, in the assay with UACC-62 melanoma, in the assay on A549 NSCLC and in the assay on SN12C renal was over 100 µM each time. The TGI in the assay with NCI-H23 lung, in the assay on RXF 393 renal, with SK-MEL-28 melanoma, in the assay with UACC-62 melanoma, in the assay with A549 NSCLC and in the assay on SK-MEL-5 melanoma was over 100 µM throughout. For the same molecule, the TGI with SN12C renal is over 100 µM.
For the molecule `COc1cccc(-c2nc3c(C(=O)NCCN(C)C)cccc3[nH]2)c1`, the TGI in the assay on NCI-H23 lung stood at 50.8 µM; with HOP-92 NSCLC it was 46.7 µM; in the assay on RXF 393 renal, 56.7 µM; in the assay with A498 renal, 32.1 µM; in the assay with SK-MEL-28 melanoma, 31.4 µM; in the assay with UACC-62 melanoma, 31.8 µM. Moreover, the TGI in the assay with A549 NSCLC was 46.2 µM; in the assay with SK-MEL-5 melanoma it was 31.5 µM; in the assay on RPMI-8226 leukemia, 46.3 µM; in the assay with SN12C renal, over 70.6 µM.
Regarding `C=C1C(=O)OC2C1C(OC(=O)/C(C)=C/C)CC1(C)C(=O)CCC(=C)C21` (stereo unspecified), the TGI in the assay with NCI-H23 lung is 30.1 µM; with HOP-92 NSCLC, 19.9 µM; with RXF 393 renal, 11 µM; in the assay on A498 renal, 34 µM; with SK-MEL-28 melanoma it was over 42.8 µM; in the assay on UACC-62 melanoma, 23.5 µM. The TGI in the assay on A549 NSCLC is 43.7 µM; with SK-MEL-5 melanoma, 22.8 µM; with RPMI-8226 leukemia, 7.97 µM; in the assay with SN12C renal, 4.09 µM.
Consider `CC(C)C(N=Cc1ccccc1O)C(=O)O` (stereo unspecified), for which the TGI in the assay on NCI-H23 lung, with HOP-92 NSCLC, in the assay with A498 renal, in the assay with SK-MEL-28 melanoma, in the assay on UACC-62 melanoma and in the assay on A549 NSCLC was over 100 µM throughout. Besides, the TGI in the assay on SK-MEL-5 melanoma, in the assay with RPMI-8226 leukemia and in the assay with SN12C renal was over 100 µM each time.
`O=C1/C(=C\c2ccc(-c3ccc(Cl)cc3Cl)o2)SC2N=C(COc3ccc(Cl)cc3)NN12` (stereo unspecified): the TGI in the assay on NCI-H23 lung is over 100 µM; in the assay with HOP-92 NSCLC, over 100 µM; in the assay on RXF 393 renal, 88 µM; in the assay on A498 renal it was 5.98 µM; in the assay on SK-MEL-28 melanoma it was over 100 µM; with UACC-62 melanoma it was over 100 µM. Also, the TGI in the assay on A549 NSCLC, with SK-MEL-5 melanoma, in the assay on RPMI-8226 leukemia and in the assay with SN12C renal was over 100 µM in each case.
